Assay results reported in patent publication US20260256723A1, “THIOL-BASED COMPOUNDS AND COMPOSITIONS AND USES THEREOF” (CASE WESTERN RESERVE UNIVERSITY, priority 2022, published 2026).
Several values for one entry are separate records, joined by “and”; a condition that tells them apart may be missing. Equal values may be shown once. Entries after “also recorded” stand apart in the source; their conditions may differ. Read-outs that look alike come from different tables or passages of the source.

Legend:
[1] = system: unanesthetized rats receiving continuous intravenous infusion of fentanyl; design: species or system Sprague Dawley rat; details: rat, in vivo
[2] = system: unanesthetized rats receiving continuous intravenous infusion of fentanyl; design: species or system Sprague Dawley rat; details: rat, in vivo; remark: listed apart in the source
[3] = system: unanesthetized rats receiving continuous intravenous infusion of fentanyl; design: species or system Sprague Dawley rat; details: rat, in vivo; remark: listed apart in the source
[4] = system: unanesthetized rats receiving continuous intravenous infusion of fentanyl; design: species or system Sprague Dawley rat; details: rat, in vivo; remark: listed apart in the source
[5] = system: rats receiving infusion of fentanyl; design: species or system Sprague-Dawley rat; details: rat, in vivo
[6] = system: rats given bolus injections of fentanyl or morphine; details: rat, in vivo
[7] = system: freely moving rats injected with morphine; experiment: Ventilatory responses to morphine and subsequent injections of L-NACme; type: in vivo, rat
[8] = after morphine 10 mg/kg IV, two injections of L-NACme 500 μmol/kg IV
[9] = before morphine, group later given L-NACme
[10] = morphine 10 mg/kg IV, before L-NACme

CC(=O)N[C@@H](CS)C(=O)O [L-NAC, N-acetyl-L-cysteine]
EEP, actual value [1]: 45.4 ms | EF50, baseline [1]: 0.36 ± 0.03 mL/s | EIP, actual value [1]: 7.9 ms | Effect on Freq, TV and MV (words, FIG. 1) [1]: immediate and sustained increase in these parameters to levels approaching (Freq and MV) and actually reaching (TV) pre-infusion levels; also recorded: did not further boost Freq whereas it did boost TV and therefore MV | Effect on NEBI (words, FIG. 11) [1]: noticeable decrease in NEBI | Effect on PEF (words, FIG. 4) [1]: substantial and sustained increases in PEF | Effect on PIF (words, FIG. 4) [1]: sustained partial recover of PIF | Effect on Te (words, FIG. 2) [1]: prevented this increase in Te | Effect on Ti/Te (words, FIG. 2) [1]: sustained elevation in Ti/Te compared to vehicle-injected rats | Effect on expiratory drive (words, FIG. 5) [1]: immediate, substantial and sustained increases in expiratory dive | End Expiratory Pause, baseline [1]: 44.3 ± 4.0 | ExpD TV/Te, actual value [1]: 5.5 mL/s | Expiratory Drive (TV/Te), baseline [1]: 5.5 ± 0.3 mL/s | Expiratory Time (Te), baseline [1]: 0.443 ± 0.022 s | Freq, actual value [1]: 102 breaths/min | Frequency of Breathing (Freq), baseline [1]: 102 ± 5 breaths/min | InspD (TV/Ti), actual value [1]: 12.4 mL/s | Inspiratory Drive (TV/Ti), baseline [1]: 12.4 ± 0.6 mL/s | Inspiratory Time (Ti), baseline [1]: 0.200 ± 0.010 s | Level of NEBI (words, FIG. 11) [1]: not noticeably different from those that received the second injection of vehicle | MV, actual value [1]: 247 mL/min | Minute Ventilation, baseline [1]: 247 ± 14 mL/min | NEBI, actual value [1]: 2.6% | PEF, actual value [1]: 11.2 | PIF/PEF, actual value [1]: 1.61 | PIF/PEF, baseline [1]: 1.63 ± 0.11 | Pause, (Te/RT) − 1, baseline [1]: 0.40 ± 0.08 | Pause, (Te/RT)-1, actual value [1]: 0.40 | Peak Expiratory Flow (PEF), baseline [1]: 11.2 ± 0.7 mL/s | Peak Inspiratory Flow (PIF), baseline [1]: 17.6 ± 1.1 mL/s | RT, actual value [1]: 0.32 s | Relaxation Time (RT), baseline [1]: 0.32 ± 0.02 s | TV, actual value [1]: 2.42 mL | Te − RT, baseline [1]: 0.12 ± 0.02 | Te, actual value [1]: 0.44 s | Te-RT, actual value [1]: 0.12 | Ti, actual value [1]: 0.20 s | Ti/Te, actual value [1]: 0.46 | Ti/Te, baseline [1]: 0.46 ± 0.02 | Tidal Volume, baseline [1]: 2.42 ± 0.05 mL | Total (cumulative) change in NEBI (words, FIG. 7) [1]: virtually eliminated NEBI | Total (cumulative) change in PEF (words, FIG. 7) [1]: pronounced increase in PEF | Total (cumulative) change in expiratory drive (words, FIG. 7) [1]: converted the decrease in expiratory drive (ExpD) to an increase | EF50, total percent change ([1]; iv): +57.6 ± 11.3% | EIP, actual value ([1]; iv): 20.2 ms and 19.7 ms | EIP, arithmetic change ([1]; iv): +12 msec | End Expiratory Pause, total percent change ([1]; iv): +9.1 ± 6.3% | End Inspiratory Pause, total percent change ([1]; iv): +147.0 ± 12.9% | ExpD TV/Te, actual value ([1]; iv): 4.6 mL/s and 6.9 mL/s and 8.1 mL/s | Expiratory Drive (TV/Te), total percent change ([1]; iv): −14.6 ± 3.1% | Expiratory Time (Te), total percent change ([1]; iv): −10.3 ± 3.5% | Freq, actual value ([1]; iv): 78 breaths/min and 90 breaths/min and 89 breaths/min | Frequency of Breathing (Freq), total percent change ([1]; iv): −21.6 ± 2.4% | InspD (TV/Ti), actual value ([1]; iv): 4.8 mL/s and 6.6 mL/s and 7.9 mL/s | Inspiratory Drive (TV/Ti), total percent change ([1]; iv): −56.3 ± 2.7% | Inspiratory Time (Ti), total percent change ([1]; iv): +82.5 ± 14.1% | MV, actual value ([1]; iv): 135 mL/min and 210 mL/min and 241 mL/min | Minute Ventilation, total percent change ([1]; iv): −39.9 ± 2.7% | NEBI, actual value ([1]; iv): 2.0% and 1.0% and 1.3% | NEBI, arithmetic change ([1]; iv): −0.6% and −1.6% and −1.3% | PEF, actual value ([1]; iv): 11.2 and 13.8 and 15.3 | PIF/PEF, actual value ([1]; iv): 0.82 and 0.84 and 0.93 | PIF/PEF, total percent change ([1]; iv): −42.1 ± 4.7% | Pause, (Te/RT) − 1, total percent change ([1]; iv): +348.6 ± 67.4% | Pause, (Te/RT)-1, actual value ([1]; iv): 1.32 and 0.94 | Peak Expiratory Flow (PEF), total percent change ([1]; iv): −2.2 ± 2.8% | Peak Inspiratory Flow (PIF), total percent change ([1]; iv): −44.0 ± 3.7% | RT, actual value ([1]; iv): 0.17 s and 0.18 s | Relaxation Time (RT), total percent change ([1]; iv): −41.4 ± 4.6% | TV, actual value ([1]; iv): 1.73 mL and 2.34 mL and 2.71 mL | Te − RT, total percent change ([1]; iv): +129.9 ± 28.2% | Te, actual value ([1]; iv): 0.38 s and 0.34 s | Te-RT, actual value ([1]; iv): 0.21 and 0.17 and 0.16 | Ti, actual value ([1]; iv): 0.36 s and 0.35 s | Ti/Te, actual value ([1]; iv): 0.96 and 1.06 and 1.05 | Ti/Te, total percent change ([1]; iv): +104.4 ± 11.6% | Tidal Volume, total percent change ([1]; iv): −23.5 ± 2.5% | A-a gradient [2]: 17.9 ± 0.7 mmHg | Arterial blood pH [2]: 7.442 ± 0.008 | Beneficial effects on ABG chemistry and A-a gradient (words, FIG. 9) [2]: still evident 30 min after the second injection of L-NAC | pCO2 [2]: 35.7 ± 0.03 mmHg | pO2 [2]: 92.1 ± 0.07 mmHg | sO2 [2]: 99.0 ± 0.4% | A-a gradient ([2]; iv): 27.6 ± 0.8 mmHg and 23.1 ± 1.3 mmHg and 26.1 ± 1.5 mmHg | Arterial blood pH ([2]; iv): 7.162 ± 0.026 and 7.392 ± 0.006 and 7.443 ± 0.013 | pCO2 ([2]; iv): 57.3 ± 1.5 mmHg and 36.2 ± 1.1 mmHg and 35.2 ± 0.4 mmHg | pO2 ([2]; iv): 58.4 ± 1.9 mmHg and 86.3 ± 1.6 mmHg and 84.5 ± 1.4 mmHg | sO2 ([2]; iv): 59.1 ± 1.8% and 93.6 ± 0.9% and 92.4 ± 1.2% | Actual TFL values [3]: 11.9 ± 0.1 s and 11.5 ± 0.1 s | Righting reflex, time to get back on all four paws [4]: 4.6 ± 1.5 s | Fecal output, number of pellets, total weight (words, FIG. 13C-D) [5]: normalized by L-NAC injections | Urine and fecal parameters (words, FIG. 13) [5]: did not affect parameters in vehicle-infused rats | Effect of bolus L-NAC on bolus opioid [6]: completely without effect

CCOC(=O)[C@H](CS)NC(C)=O [L-NACme, N-acetyl-L-cysteine ethyl ester]
Frequency, Drug - entire 75 min, % change [7, 8]: +11 ± 2 % | Minute Ventilation, Drug - entire 75 min, % change [7, 8]: −19 ± 4 % | Tidal Volume, Drug - entire 75 min, % change [7, 8]: −22 ± 3 % | Frequency, Pre values [7, 9]: 98 ± 4 | Minute Ventilation, Pre values [7, 9]: 259 ± 17 | Tidal Volume, Pre values [7, 9]: 2.61 ± 0.16 | Frequency, Morphine - first 15 min response (%) [7, 10]: −4.9 ± 2.8% | Frequency, Morphine - peak (+) response (%) [7, 10]: +42 ± 6 % | Frequency, Morphine peak (−) response (%) [7, 10]: −22 ± 4 % | Minute Ventilation, Morphine - first 15 min response (%) [7, 10]: −35 ± 3 % | Minute Ventilation, Morphine - peak (+) response (%) [7, 10]: +20 ± 6 % | Minute Ventilation, Morphine peak (−) response (%) [7, 10]: −54 ± 4 % | Tidal Volume, Morphine - first 15 min response (%) [7, 10]: −34 ± 3 % | Tidal Volume, Morphine - peak (+) response (%) [7, 10]: −16 ± 6 % | Tidal Volume, Morphine peak (−) response (%) [7, 10]: −40 ± 6 %
